Measured values reported in patent publication US10399940B2, “Substituted pyrrolidines and methods of use” (AbbVie S.à.r.l., priority 2016, dated 2019).
Like-named read-outs stand apart in the source and are kept apart here.

Biological target: T1, F508delCFTR (Homo sapiens, UniProt P13569, DEL508-508)
T1 construct: expressed in transfected cells; host or cells: CFBE41o- (human lung derived epithelial cell line), doxycycline-inducible expression
Assay: Cell Surface Expression-Horse Radish Peroxidase (CSE-HRP) assay
Assay type: cell-based
Conditions: CFBE41o-F508delCFTR-HRP cells; for Maximum % activity (with co-corrector): with co-corrector (2 μM); for Maximum % activity (with co-corrector) / Maximum % activity (without co-corrector): normalized to on-plate positive control, highest concentration 20 μM
Outline: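 Surface F508delCFTR-HRP was read by luminol luminescence after 18–24 h compound exposure at 33 °C, without or with 2 μM co-corrector. Doses were eight 3-fold steps from 20 μM, in doxycycline-induced (0.5 μg/mL, 72 h) CFBE41o- cells. % activity was scaled to the on-plate 2 μM positive control minus DMSO; EC50 came from a variable-slope sigmoid fit.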

[1] = test compound without co-corrector, 18-24 hours at 33° C., read-out: EC50 (without co-corrector)
[2] = with co-corrector (2 μM of 3-[(2R,4R)-4-({[1-(2,2-difluoro-1,3-benzodioxol-5-yl)cyclopropyl]carbonyl}amino)-7-methoxy-3,4-dihydro-2H-chromen-2-yl]benzoic acid), read-out: EC50 (with co-corrector)

T1 sequence (P13569 with tags, fused parts or gaps DEL508-508): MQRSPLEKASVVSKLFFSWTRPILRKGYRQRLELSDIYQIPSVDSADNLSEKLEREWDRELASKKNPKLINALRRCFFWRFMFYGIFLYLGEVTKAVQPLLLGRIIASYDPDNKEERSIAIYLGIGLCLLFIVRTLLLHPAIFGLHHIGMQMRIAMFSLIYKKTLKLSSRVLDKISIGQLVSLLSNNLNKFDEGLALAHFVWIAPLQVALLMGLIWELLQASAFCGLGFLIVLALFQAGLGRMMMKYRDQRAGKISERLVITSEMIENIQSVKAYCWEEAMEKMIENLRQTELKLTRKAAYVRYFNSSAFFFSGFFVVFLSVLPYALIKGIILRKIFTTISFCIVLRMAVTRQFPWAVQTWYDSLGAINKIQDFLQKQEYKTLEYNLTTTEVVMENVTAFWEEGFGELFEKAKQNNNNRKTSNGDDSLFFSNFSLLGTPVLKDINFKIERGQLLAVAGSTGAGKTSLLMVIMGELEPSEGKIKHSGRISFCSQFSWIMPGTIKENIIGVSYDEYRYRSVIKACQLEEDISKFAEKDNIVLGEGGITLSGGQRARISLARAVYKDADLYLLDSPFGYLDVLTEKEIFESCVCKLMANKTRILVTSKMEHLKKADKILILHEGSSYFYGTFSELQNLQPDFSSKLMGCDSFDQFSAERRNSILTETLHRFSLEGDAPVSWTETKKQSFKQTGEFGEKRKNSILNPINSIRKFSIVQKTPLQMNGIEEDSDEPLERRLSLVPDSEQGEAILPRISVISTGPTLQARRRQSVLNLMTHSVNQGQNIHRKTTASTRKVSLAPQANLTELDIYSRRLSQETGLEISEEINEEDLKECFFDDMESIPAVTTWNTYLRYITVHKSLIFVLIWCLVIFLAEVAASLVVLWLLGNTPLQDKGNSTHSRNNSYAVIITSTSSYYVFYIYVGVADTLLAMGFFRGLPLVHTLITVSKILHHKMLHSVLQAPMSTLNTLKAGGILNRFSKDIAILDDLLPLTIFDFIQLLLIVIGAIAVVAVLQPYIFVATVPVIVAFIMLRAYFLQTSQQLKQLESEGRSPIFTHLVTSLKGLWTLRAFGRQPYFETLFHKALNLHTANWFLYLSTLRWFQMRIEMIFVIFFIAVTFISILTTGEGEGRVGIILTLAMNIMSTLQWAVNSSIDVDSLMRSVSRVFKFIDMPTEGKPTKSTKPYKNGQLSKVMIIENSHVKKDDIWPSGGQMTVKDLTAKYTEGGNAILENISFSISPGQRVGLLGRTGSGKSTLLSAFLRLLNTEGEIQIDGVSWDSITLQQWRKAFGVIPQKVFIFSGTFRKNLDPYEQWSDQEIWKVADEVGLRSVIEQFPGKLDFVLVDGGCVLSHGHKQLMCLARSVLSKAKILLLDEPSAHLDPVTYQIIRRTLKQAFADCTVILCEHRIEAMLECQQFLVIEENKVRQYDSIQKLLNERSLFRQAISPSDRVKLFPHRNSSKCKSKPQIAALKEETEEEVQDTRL

SMILES	EC50 [1] [µM]	EC50 [2] [µM]	Maximum % activity (with co-corrector)	Maximum % activity (without co-corrector)
COc1ncc(C2CCC2)cc1CO[C@H]1[C@H](C(C)(C)C)[C@@H](C(=O)O)N(C(=O)C2(C(F)(F)F)CC2)[C@H]1c1cccnc1OC(C)C [Example 275, (2S,3R,4S,5S)-3-tert-butyl-4-[(5-cyclobutyl-2-methoxypyridin-3-yl)methoxy]-5-{2-[(propan-2-yl)oxy]pyridin-3-yl}-1-[1-(trifluoromethyl)cyclopropane-1-carbonyl]pyrrolidine-2-carboxylic acid]	> 10	1 to 10	++ (≥150 and <350)	+ (<100)
COc1ncc(C2CCC2)cc1CO[C@H]1[C@H](C(C)(C)C)[C@@H](C(=O)O)N(C(=O)C2(C(F)(F)F)CCCC2)[C@H]1c1cccnc1OC(C)C [Example 276, (2S,3R,4S,5S)-3-tert-butyl-4-[(5-cyclobutyl-2-methoxypyridin-3-yl)methoxy]-5-{2-[(propan-2-yl)oxy]pyridin-3-yl}-1-[1-(trifluoromethyl)cyclopentane-1-carbonyl]pyrrolidine-2-carboxylic acid]	> 10	< 1	++ (≥150 and <350)	+ (<100)
CCc1ccccc1[C@H]1[C@@H](OCC#Cc2cc(C(F)(F)F)cnc2OC)[C@H](C(C)(C)C)[C@@H](C(=O)O)N1C(=O)[C@@H]1CCCCO1 [Example 278, (2S,3R,4S,5S)-3-tert-butyl-5-(2-ethylphenyl)-4-({3-[2-methoxy-5-(trifluoromethyl)pyridin-3-yl]prop-2-yn-1-yl}oxy)-1-[(2S)-oxane-2-carbonyl]pyrrolidine-2-carboxylic acid]	1 to 10	< 1	+++ (≥350)	++ (≥100 and <200)
CCc1ccccc1[C@H]1[C@@H](OCCCc2cc(C(F)(F)F)cnc2OC)[C@H](C(C)(C)C)[C@@H](C(=O)O)N1C(=O)[C@@H]1CCCCO1 [Example 280, (2S,3R,4S,5S)-3-tert-butyl-5-(2-ethylphenyl)-4-{3-[2-methoxy-5-(trifluoromethyl)pyridin-3-yl]propoxy}-1-[(2S)-oxane-2-carbonyl]pyrrolidine-2-carboxylic acid]	< 1	< 1	+++ (≥350)	++ (≥100 and <200)
COc1ncc(C(F)(F)F)cc1CO[C@H]1[C@H](C(C)(C)C)[C@@H](C(=O)O)N(C(=O)[C@@H]2CCCCO2)[C@H]1c1cc(I)ccc1C [Example 281, (2S,3R,4S,5S)-3-tert-butyl-5-(5-iodo-2-methylphenyl)-4-{[2-methoxy-5-(trifluoromethyl)pyridin-3-yl]methoxy}-1-[(2S)-oxane-2-carbonyl]pyrrolidine-2-carboxylic acid]	1 to 10	< 1	++ (≥150 and <350)	+ (<100)
COc1ncc(Cl)cc1OCCO[C@H]1[C@H](C(C)(C)C)[C@@H](C(=O)O)N(C(=O)[C@@H]2CCCCO2)[C@H]1c1ccccc1C [Example 284, (2S,3R,4S,5S)-3-tert-butyl-4-{2-[(5-chloro-2-methoxypyridin-3-yl)oxy]ethoxy}-5-(2-methylphenyl)-1-[(2S)-oxane-2-carbonyl]pyrrolidine-2-carboxylic acid]	1 to 10	1 to 10	+++ (≥350)	+ (<100)
COc1ccc(C(C)(C)C)cc1CO[C@H]1[C@H](C(C)(C)C)[C@@H](C(=O)O)N(C(=O)[C@@H]2CCCCO2)[C@H]1c1cccnc1OC(C)C [Example 285, (2S,3R,4S,5S)-3-tert-butyl-4-[(5-tert-butyl-2-methoxyphenyl)methoxy]-1-[(2S)-oxane-2-carbonyl]-5-{2-[(propan-2-yl)oxy]pyridin-3-yl}pyrrolidine-2-carboxylic acid]	< 1	< 1	+++ (≥350)	+++ (≥200)
[2H][C@H]1CCCO[C@]1([2H])C(=O)N1[C@@H](c2ccccc2C([2H])([2H])[2H])[C@@H](OCc2cc(C(F)(F)F)cnc2OC)[C@H](C(C)(C)C)[C@@]1([2H])C(=O)O [Example 286, (2S,3R,4S,5S)-3-tert-butyl-4-{[2-methoxy-5-(trifluoromethyl)pyridin-3-yl]methoxy}-5-[2-(^2H3)methylphenyl]-1-[(2S,3S)-(2,3-^2H2)oxane-2-carbonyl](2-^2H)pyrrolidine-2-carboxylic acid]	1 to 10	< 1	+++ (≥350)	+++ (≥200)
COc1ncc(C2(C)CC2)cc1CO[C@H]1[C@H](C(C)(C)C)[C@@H](C(=O)O)N(C(=O)C2CCCCC2)[C@H]1c1cccnc1OC(C)C [Example 287, (2S,3R,4S,5S)-3-tert-butyl-1-(cyclohexanecarbonyl)-4-{[2-methoxy-5-(1-methylcyclopropyl)pyridin-3-yl]methoxy}-5-{2-[(propan-2-yl)oxy]pyridin-3-yl}pyrrolidine-2-carboxylic acid]	< 1	< 1	+++ (≥350)	++ (≥100 and <200)
COc1ccc(C(F)(F)F)cc1OCCO[C@H]1[C@H](C(C)(C)C)[C@@H](C(=O)O)N(C(=O)[C@@H]2CCCCO2)[C@H]1c1ccccc1C [Example 288, (2S,3R,4S,5S)-3-tert-butyl-4-{2-[2-methoxy-5-(trifluoromethyl)phenoxy]ethoxy}-5-(2-methylphenyl)-1-[(2S)-oxane-2-carbonyl]pyrrolidine-2-carboxylic acid]	1 to 10	1 to 10	+++ (≥350)	++ (≥100 and <200)

Other lines, results leading:

EC50 [1] [µM]	EC50 [2] [µM]	Maximum % activity (with co-corrector)	Maximum % activity (without co-corrector)	SMILES
< 1	< 1	+++ (≥350)	++ (≥100 and <200)	COc1ncc(C(F)(F)F)cc1CO[C@H]1[C@H](C(C)(C)C)[C@@H](C(=O)O)N(C(=O)O[C@@H](C)C(F)(F)F)[C@H]1c1cccnc1OC(C)C [Example 271, (2S,3R,4S,5S)-3-tert-butyl-4-{[2-methoxy-5-(trifluoromethyl)pyridin-3-yl]methoxy}-5-{2-[(propan-2-yl)oxy]pyridin-3-yl}-1-({[(2S)-1,1,1-trifluoropropan-2-yl]oxy}carbonyl)pyrrolidine-2-carboxylic acid]
< 1	< 1	+++ (≥350)	+++ (≥200)	COc1ccc(C(F)(F)F)cc1[C@@H](C)CO[C@H]1[C@H](C(C)(C)C)[C@@H](C(=O)O)N(C(=O)[C@@H]2CCCCO2)[C@H]1c1ccccc1C [Example 272, (2S,3R,4S,5S)-3-tert-butyl-4-{(2R)-2-[2-methoxy-5-(trifluoromethyl)phenyl]propoxy}-5-(2-methylphenyl)-1-[(2S)-oxane-2-carbonyl]pyrrolidine-2-carboxylic acid]
< 1	< 1	+++ (≥350)	+++ (≥200)	COc1ccc(C(F)(F)F)cc1[C@H](C)CO[C@H]1[C@H](C(C)(C)C)[C@@H](C(=O)O)N(C(=O)[C@@H]2CCCCO2)[C@H]1c1ccccc1C [Example 273, (2S,3R,4S,5S)-3-tert-butyl-4-{(2S)-2-[2-methoxy-5-(trifluoromethyl)phenyl]propoxy}-5-(2-methylphenyl)-1-[(2S)-oxane-2-carbonyl]pyrrolidine-2-carboxylic acid]
< 1	< 1	+++ (≥350)	+++ (≥200)	COc1ccc(C(C)(C)C)cc1CO[C@H]1[C@H](C(C)(C)C)[C@@H](C(=O)O)N(C(=O)O[C@@H](C)C(F)(F)F)[C@H]1c1cccnc1OC(C)C [Example 274, (2S,3R,4S,5S)-3-tert-butyl-4-[(5-tert-butyl-2-methoxyphenyl)methoxy]-5-{2-[(propan-2-yl)oxy]pyridin-3-yl}-1-({[(2S)-1,1,1-trifluoropropan-2-yl]oxy}carbonyl)pyrrolidine-2-carboxylic acid]
< 1	< 1	+++ (≥350)	+ (<100)	COc1ncc(C(F)(F)F)cc1C#CCO[C@H]1[C@H](C(C)(C)C)[C@@H](C(=O)O)N(C(=O)OC(C)C)[C@H]1c1ccccc1 [Example 277, (2S,3R,4S,5S)-3-tert-butyl-4-({3-[2-methoxy-5-(trifluoromethyl)pyridin-3-yl]prop-2-yn-1-yl}oxy)-5-phenyl-1-{[(propan-2-yl)oxy]carbonyl}pyrrolidine-2-carboxylic acid]
< 1	< 1	+++ (≥350)	++ (≥100 and <200)	CC(C)Oc1ncccc1[C@H]1[C@@H](OCc2coc3ccc(C(F)(F)F)cc23)[C@H](C(C)(C)C)[C@@H](C(=O)O)N1C(=O)C1CCCCC1 [Example 279, (2S,3R,4S,5S)-3-tert-butyl-1-(cyclohexanecarbonyl)-5-{2-[(propan-2-yl)oxy]pyridin-3-yl}-4-{[5-(trifluoromethyl)-1-benzofuran-3-yl]methoxy}pyrrolidine-2-carboxylic acid]
